The results in this text go back to patent US20250206734A1, “BICYCLIC HETEROCYCLES AS MRGPRX2 ANTAGONISTS” (Incyte Corporation, priority 2023, published 2025).

Common to all, as to assay type: cell-based
In assay [1] the target is T1, MRGPRX2 (Homo sapiens, UniProt Q96LB1).
T1 sequence (Q96LB1 1-330): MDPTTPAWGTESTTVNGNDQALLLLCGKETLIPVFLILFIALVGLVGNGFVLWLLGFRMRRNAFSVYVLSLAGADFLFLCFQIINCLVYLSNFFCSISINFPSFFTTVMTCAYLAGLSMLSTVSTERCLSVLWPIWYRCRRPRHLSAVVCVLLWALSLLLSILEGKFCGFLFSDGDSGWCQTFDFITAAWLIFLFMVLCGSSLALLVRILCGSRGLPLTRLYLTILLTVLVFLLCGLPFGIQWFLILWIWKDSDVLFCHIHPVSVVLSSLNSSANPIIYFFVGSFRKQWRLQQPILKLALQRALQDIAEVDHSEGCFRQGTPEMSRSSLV
Nature of the assay: MRGPRX2 β-Arrestin Assay. Also on record: host or cells: PathHunter CHO-K1. The note with it: PathHunter CHO-K1 MRGPRX2 β-Arrestin cell line; agonist Cortistatin 14 0.25 μM. From the text:
Example C: MRGPRX2 β-Arrestin Assay
This assay measures compound inhibition of β-Arrestin recruitment, which is part of the G protein-independent pathway that results from the ligand-activated GPCR phosphorylation by specific GPCR kinases. The PathHunter CHO-K1 MRPGRX2 B-Arrestin Cell line stably expressing ProLink tagged MRGPRX2 and Enzyme Acceptor Tagged B-Arrestin was purchased from Eurofins DiscoverX, (Fremont, CA).
The cells were maintained in culture medium from the Europhins DiscoverX Cell Culture Kit-107 which includes FBS, hygromycin B and G418. For the assay, the cells were harvested and were resuspended with Cell Plating Reagent 2 (Eurofins DiscoverX). Cells were added 10000 cells in 25 μL/well to a 384-well black cell culture plate (Greiner VWR, Radnor, PA) which contained 125 nL/well of compound at a selected serially diluted concentration range or DMSO. The plate was incubated at 37° C. with 5% CO2 for 1 h. 2 μL/well of agonist Cortistatin 14 was diluted in Protein Dilution Buffer, (Eurofins DiscoverX) for a final concentration of 0.25 μM, was added and the plate was incubated at 37° C. with 5% CO2 for 90 min. 14 μL/well of Detection Reagent Mix (PathHunter Detection Kit, Eurofins DiscoverX) was added to the plates and further incubated for 1 h in the dark. Plates were read on the PHERAstar microplate reader (BMG Labtech Cary, NC) measuring luminescence 0.1 to 1 s per well. Data was normalized using DMSO only wells and wells with high concentration of reference antagonist as controls. Compound IC50 curves were globally fitted with 3- or 4-parameter Hill equation in a Genedata Screener (Genedata Basel, Switzerland).

The target of assay [2] is T1, MRGPRX2. Nature of the assay: MRGPRX2 IP1 HTRF Assay. Also on record: host or cells: CHO-K1. As to conditions: CHO-K1 cells stably expressing human MRGPRX2; IP1 accumulation; agonist Cortistatin 14 1 μM. The source says:
Example B: MRGPRX2 IP1 HTRF Assay
This assay measures compound inhibition of myo-Inositol 1 phosphate (IP1) accumulation in CHO-K1 cells. Chinese hamster ovary (CHO-K1) cells stably expressing human MRGPRX2 were purchased from GenScript (Piscataway, NJ).
For the HTRF IP1 determination, an IP-One GqKit (Perkin Elmer Cisbio, Waltham, MA), which includes all reagents and buffers in this protocol, was used. The cells were maintained in culture medium (Ham's F-12K) containing 10% (v/v) FBS, and 200 μg/mL Zeocin. For the assay, the cells were harvested and resuspended in culture medium with 2% FBS and without Zeocin, then were passed through a 40 μm filter. Cells were added at 20000 cells in a 5 μL/well to a 384-well white small volume cell culture plate (Greiner VWR, Radnor, PA) which contained 50 nL/well of test compound serially diluted at a selected concentration range in DMSO. 5 μL/well of prepared 2× Stimulation Buffer2 was then added to plates and was incubated at 37° C. with 5% CO2 for 1 h. 5 μL/well of agonist Cortistatin 14 (Bio-TechneR&D Systems, Minneapolis, MN) in 1× Stimulation Buffer 2, for a 1 μM final concentration, was then added to plates and incubated at 37° C. with 5% CO2 for 1 h. 6 μL/well of 1:20 diluted Detection Reagent Mix (d2 and Cryptate) was added to the plates and incubated for 1 h in the dark. Plates were read on the PHERAstar microplate reader (BMG Labtech Cary, NC) to determine the HTRF ratio of the acceptor and donor emission signals. The IP1 concentrations were calculated from a standard curve following the IP-One GQ kit instructions. Wells with DMSO only and wells with high concentration of reference antagonist were used as controls for normalization. Compound IC50 curves were globally fitted with 3- or 4-parameter Hill equation in a Genedata Screener (Genedata Basel, Switzerland).
A general note: TR-FRET usually uses a lanthanide donor and a delayed reading to cut background.

The target of assay [3] is T1, MRGPRX2. Nature of the assay: MRGPRX2 FLIPR Calcium Mobilization Assay. More on the design: host or cells: CHO-K1. As to conditions: CHO-K1 cells stably expressing human MRGPRX2; Ca2+ release; agonist Cortistatin-14 at EC80. As to the method:
Example A. MRGPRX2 FLIPR Calcium Mobilization Assay
Chinese hamster ovary (CHO-K1) cells stably expressing human MRGPRX2 were purchased from Genescript (Piscataway, NJ). The cells were maintained in culture medium (Ham's F-12K) containing 10% (v/v) FBS, 200 μg/mL Zeocin, 100 units/mL penicillin G and 100 μg/mL streptomycin (Life Technologies, Carlsbad, CA). For the assay, the cells were harvested and resuspended with culture medium without Zeocin before plating at 8000 cells per well in 20 μL in 384-well black clear bottom cell culture plates (VWR, Radnor, PA). After 24 hour culture at 37° C. and 5% CO2, the cells were loaded with 20 μL/well of calcium dye (FLIPR Calcium 6 Assay Kit, Molecular Devices, San Jose, CA) diluted in loading buffer (1× Hank's Balanced Salt Solution (HBSS), 5 mM probenecid, 20 mM 4-(2-hydroxyethyl)-1-piperazineethanesulfonic acid (HEPES), pH 7.4, VWR, Radnor, PA) followed with 45 min incubation at 37° C. and 40 min. at r.t. in the dark. Cells were then treated with the addition of 10 uL/well test compounds with a range of increasing concentrations diluted in the assay buffer (1×HBSS, 20 mM HEPES, pH 7.4, VWR, Radnor, PA) with FLIPR Penta (Molecular Devices. San Jose, CA) and incubated for 30 min. at r.t. Ca^2+ release was measured with FLIPR Penta with 10 s basal fluorescence measurement, then 12.5 μL of 5× agonist Cortistatin-14 (Tocris, Minneapolis, MN) at final concentration corresponding to the EC80 were added followed with continued fluorescence signal monitoring for an additional 110 s. The base line adjusted (median of first 10s base line) max value of the Relative Fluorescence Unit (RFU) was plotted against compound concentrations. Wells with no compound were served as the positive controls, and wells with high concentration of reference antagonist were used as negative controls. IC50 curves were globally fitted with 3- or 4-parameter Hill equation in a Genedata Screener (Genedata Basel, Switzerland).
In general terms: Calcium assays in cells follow changes in intracellular calcium, usually with a dye or a luminescent sensor.

One may read the IC50 as the point on the concentration scale where inhibition reaches its midpoint. Turning to `O=c1ccc(C2CCCN2C(c2cc3ncc(Oc4ccc(F)cc4F)cc3cn2)C(F)(F)F)c[nH]1` (centres unmarked) [Example 20, 5-(1-(1-(3-(2,4-Difluorophenoxy)-1,6-naphthyridin-7-yl)-2,2,2-trifluoroethyl)pyrrolidin-2-yl)pyridin-2(1H)-one], the IC50 on MRGPRX2 [1] and on MRGPRX2 [2] was 0.0001 to 0.1 µM throughout.

Regarding `Fc1ccc(Oc2cnc3cc(C(N4CC(F)(F)CC4c4ccccc4)C(F)(F)F)ncc3c2)c(F)c1` (centres unmarked) [Example 18, 7-(1-(4,4-Difluoro-2-phenylpyrrolidin-1-yl)-2,2,2-trifluoroethyl)-3-(2,4-difluorophenoxy)-1,6-naphthyridine], the IC50 at MRGPRX2 [1] and at MRGPRX2 [2] was 0.0001 to 0.1 µM each time. Compound `Fc1ccc(Oc2cnc3cc(C(N4CC5CCC4C5)C(F)(F)F)ncc3c2)c(F)c1` (centres unmarked) [Example 11, 7-(1-(2-Azabicyclo[2.2.1]heptan-2-yl)-2,2,2-trifluoroethyl)-3-(2,4-difluorophenoxy)-1,6-naphthyridine] came in with an IC50 on MRGPRX2 [1] of 0.1 to 1 µM.

Turning to `Fc1ccc(Oc2cnc3cc(C(C(F)F)N4CCC(F)(F)CC4)ncc3c2)c(F)c1` (centres unmarked) [Example 22, 3-(2,4-Difluorophenoxy)-7-(1-(4,4-difluoropiperidin-1-yl)-2,2-difluoroethyl)-1,6-naphthyridine], the IC50 on MRGPRX2 [1] and at MRGPRX2 [3] was 0.0001 to 0.1 µM in each case. Consider `CC1(O)CCCN(C(c2cc3ncc(Oc4ccc(F)cc4F)cc3cn2)C(F)F)C1` (centres unmarked) [Example 21, 1-(1-(3-(2,4-Difluorophenoxy)-1,6-naphthyridin-7-yl)-2,2-difluoroethyl)-3-methylpiperidin-3-ol], for which the IC50 at MRGPRX2 [1] and on MRGPRX2 [3] was 0.0001 to 0.1 µM each time. The compound `O=c1ccc(C2CN(C(c3cc4ncc(Cc5ccccc5)cc4cn3)C(F)(F)F)CCC2(F)F)c[nH]1` (centres unmarked) [Example 27, 5-(1-(1-(3-Benzyl-1,6-naphthyridin-7-yl)-2,2,2-trifluoroethyl)-4,4-difluoropiperidin-3-yl)pyridin-2(1H)-one] had an IC50 on MRGPRX2 [1] of more than 1 µM. Take `N#CC1CCCN(C(c2cc3ncc(Oc4ccc(F)cc4F)cc3cn2)C(F)(F)F)C1` (centres unmarked) [Example 10, 1-(1-(3-(2,4-Difluorophenoxy)-1,6-naphthyridin-7-yl)-2,2,2-trifluoroethyl)piperidine-3-carbonitrile]: the IC50 on MRGPRX2 [1] and on MRGPRX2 [3] was 0.0001 to 0.1 µM each time.

Turning to `CC1(C)CN(C(c2cc3ncc(Oc4ccc(F)cc4F)cc3cn2)C(F)(F)F)CCO1` (centres unmarked) [Example 8, 4-(1-(3-(2,4-Difluorophenoxy)-1,6-naphthyridin-7-yl)-2,2,2-trifluoroethyl)-2,2-dimethylmorpholine], the IC50 at MRGPRX2 [1] and on MRGPRX2 [3] was 0.0001 to 0.1 µM each time. With `Fc1ccc(Oc2cnc3cc(C(C(F)F)N4CCCC(c5ccn[nH]5)C4)ncc3c2)c(F)c1` (centres unmarked) [Example 23, 7-(1-(3-(1H-Pyrazol-5-yl)piperidin-1-yl)-2,2-difluoroethyl)-3-(2,4-difluorophenoxy)-1,6-naphthyridine], the IC50 on MRGPRX2 [1] and on MRGPRX2 [3] was 0.0001 to 0.1 µM each time.

For the compound `OC[C@@H]1CCCN1C(c1cc2ncc(Oc3ccc(F)cc3F)cc2cn1)C(F)(F)F` (stereo partly drawn) [Example 13, ((2S)-1-(1-(3-(2,4-Difluorophenoxy)-1,6-naphthyridin-7-yl)-2,2,2-trifluoroethyl)pyrrolidin-2-yl)methanol], the IC50 at MRGPRX2 [1] and on MRGPRX2 [3] was 0.0001 to 0.1 µM in each case.

`CC1(CO)CCCN(C(c2cc3ncc(Oc4ccc(F)cc4F)cc3cn2)C(F)(F)F)C1` (centres unmarked) [Example 9, (1-(1-(3-(2,4-Difluorophenoxy)-1,6-naphthyridin-7-yl)-2,2,2-trifluoroethyl)-3-methylpiperidin-3-yl)methanol]: the IC50 at MRGPRX2 [1] and at MRGPRX2 [3] was 0.0001 to 0.1 µM in each case. Turning to `Fc1ccc(Oc2cnc3cc(C(N4CCC(F)(F)C4c4ccccc4)C(F)(F)F)ncc3c2)c(F)c1` (centres unmarked) [Example 19, 7-(1-(3,3-Difluoro-2-phenylpyrrolidin-1-yl)-2,2,2-trifluoroethyl)-3-(2,4-difluorophenoxy)-1,6-naphthyridine], the IC50 on MRGPRX2 [1] and at MRGPRX2 [2] was 0.0001 to 0.1 µM throughout. For the compound `Fc1ccc(Oc2cnc3cc(C(C(F)F)N4CCCC4c4ccccc4)ncc3c2)c(F)c1` (centres unmarked) [Example 25, 7-(2,2-Difluoro-1-(2-phenylpyrrolidin-1-yl)ethyl)-3-(2,4-difluorophenoxy)-1,6-naphthyridine], the IC50 on MRGPRX2 [1] and on MRGPRX2 [3] was 0.0001 to 0.1 µM throughout. In the case of `O=c1ccc(C2CN(C(c3cc4ncc(Nc5ccc(F)cc5F)cc4cn3)C(F)(F)F)CCC2(F)F)c[nH]1` (centres unmarked) [Example 26, 5-(1-(1-(3-((2,4-Difluorophenyl)amino)-1,6-naphthyridin-7-yl)-2,2,2-trifluoroethyl)-4,4-difluoropiperidin-3-yl)pyridin-2(1H)-one], the IC50 at MRGPRX2 [1] is more than 1 µM. Take `NC(=O)[C@@H]1CCCN1C(c1cc2ncc(Oc3ccc(F)cc3F)cc2cn1)C(F)F` (stereo partly drawn) [Example 24, (2S)-1-(1-(3-(2,4-Difluorophenoxy)-1,6-naphthyridin-7-yl)-2,2-difluoroethyl)pyrrolidine-2-carboxamide]: the IC50 on MRGPRX2 [1] and at MRGPRX2 [3] was 0.0001 to 0.1 µM in each case.

In the case of `O=c1ccc(C2CN(C(c3cc4ncc(Oc5ccc(F)cc5F)cc4cn3)C(F)(F)F)CCC2(F)F)c[nH]1` (centres unmarked) [Example 17, 5-(1-(1-(3-(2,4-Difluorophenoxy)-1,6-naphthyridin-7-yl)-2,2,2-trifluoroethyl)-4,4-difluoropiperidin-3-yl)pyridin-2(1H)-one], the IC50 at MRGPRX2 [1] and at MRGPRX2 [2] was 0.0001 to 0.1 µM in each case.
